{"source": "patent US20030073683A1", "about": "“Administration of noncompetitive AMPA receptor antagonist for neuroprotection after traumatic brain injury” (priority 2001, published 2003)", "key": {"[1]": {"tested_on": "global cerebral ischemia in rats", "settings": "cited from earlier work"}, "Sprague-Dawley rats": {"tested_on": "Sprague-Dawley rats", "settings": "rat, in vivo", "text": "Fluid-Percussion Brain Injury. The following day, the rats were reanesthetized with halothane, orotracheally intubated, and maintained on 70% nitrous oxide, 1.5% halothane, and a balance of oxygen. Temperature probes were inserted into the rectum (CMA/150 Temperature Controller, CMA/Microdialysis AB, Stockholm, Sweden) and the left temporalis muscle (Thermocouple Probe, Omega Engineering, Stanford, Conn.), and separate heating lamps were used to maintain rectal temperature and temporalis muscle temperature at 37.0-37.5° C. The right femoral artery and vein were catheterized for continuous blood pressure monitoring and periodic blood sampling for arterial gases, pH, hematocrit, and plasma glucose (measurements taken 15 min before TBI and 15 min after TBI). Rectal temperature and body weight was monitored before trauma and periodically for 7 days after trauma. Mean arterial blood pressure (MABP) was measured via an indwelling femoral arterial catheter connected to a precalibrated Statham pressure transducer (model P23XL, Viggo-Spectramed Inc., Oxnard, Calif., USA) and was recorded continuously (model RS3400 polygraph, Gould, Inc., Valley View, Ohio, USA). Serial measurements were made of arterial blood gases and pH (model ABL 330, Radiometer America, Inc. Westlake, Ohio, USA) and plasma glucose (model 2300 Stnt; Yellow Springs Instrument Co., Inc., Yellow Springs, Ohio, USA). […]"}, "[2]": {"tested_on": "fluid-percussion brain injury", "experiment": "Fluid-percussion brain injury in rats: histopathological contusion areas", "assay_type": "in vivo, rat", "settings": "for reduction of mean contusion area vs vehicle-treated rats: 4 mg/kg bolus + 4 mg/kg/h over 72 hr I.V.", "text": "(§1) Rat Model. Fasted male Sprague-Dawley rats, weighing 290-390 g were employed. The animals were initially anesthetized with 3% halothane, 70% nitrous oxide, and a balance of oxygen. Rats were positioned in a stereotaxic frame following endotracheal intubation. A 4.8-mm craniotomy was made overlying the right parietal cortex (3.8 mm posterior to bregma and 2.5 mm lateral to midline) as previously described by Belayev et al., J. Neurotrauma, 16: 445-453 (1999) and Dietrich et al., J. Neuropathol. (Beri.) 87: 250-258 (1994). Next, a plastic injury tube was positioned over the exposed dura matter. Dental acrylic was then used to bond the injury tube to surrounding structures. After the acrylic had hardened, the injury tube was plugged with a Gelfoam sponge, the scalp closed with sutures, and the animal was returned to its cage and allowed to recover overnight.\n(§2) Fluid-Percussion Brain Injury. The following day, the rats were reanesthetized with halothane, orotracheally intubated, and maintained on 70% nitrous oxide, 1.5% halothane, and a balance of oxygen. Temperature probes were inserted into the rectum (CMA/150 Temperature Controller, CMA/Microdialysis AB, Stockholm, Sweden) and the left temporalis muscle (Thermocouple Probe, Omega Engineering, Stanford, Conn.), and separate heating lamps were used to maintain rectal temperature and temporalis muscle temperature at 37.0-37.5° C. The right femoral artery and vein were catheterized for continuous blood pressure monitoring and periodic blood sampling for arterial gases, pH, hematocrit, and plasma glucose (measurements taken 15 min before TBI and 15 min after TBI). Rectal temperature and body weight was monitored before trauma and periodically for 7 days after trauma. Mean arterial blood pressure (MABP) was measured via an indwelling femoral arterial catheter connected to a precalibrated Statham pressure transducer (model P23XL, Viggo-Spectramed Inc., Oxnard, Calif., USA) and was recorded continuously (model RS3400 polygraph, Gould, Inc., Valley View, Ohio, USA). Serial measurements were made of arterial blood gases and pH (model ABL 330, Radiometer America, Inc. Westlake, Ohio, USA) and plasma glucose (model 2300 Stnt; Yellow Springs Instrument Co., Inc., Yellow Springs, Ohio, USA).\n(§3) A fluid-percussion device was connected to the injury tube of the rat's skull. This device consisted of a saline-filled cylindrical Plexiglas reservoir having a rubber-coated piston at one end, a transducer housing to permit measurement of pressure transients, and a connecting device adapted to the rat's skull. Injury was induced by the descent of a pendulum, conveying a pressure transient of 1.5-2.0 atm. to the right dorsolateral parietal cortex (see Dietrich et al., J. Neuropathol. (Beri.), 87: 250-258 (1994)). Sham-operated animals (n=9) underwent similar surgical procedures but were not injured.\n(§4) Drug-Infusion System. The femoral-vein cannula was tunneled subcutaneously so as to exit from the dorsal neck and was connected to a swivel device (Stoelting Co., Wood Dale, Ill., USA) attached to the roof of a spacious cage. This device allowed bi-directional rotation. PE-50 tubing extending from the other end of the device was joined to a disposable syringe attached to an infusion pump (KDS-100, KD Scientific, Boston, Mass., USA). This tethering system allowed the rats free movement without interfering with the patency of the cannula during drug administration.\n(§5) Drug Administration. Talampanel (Lilly Research Laboratories, Indianapolis, Ind., USA; bolus infusion of 4 mg/kg followed by infusion of 4 mg/kg/h over 72 hr) or vehicle (40% 2-hydroxylpropyl-β-cyclodextrin solution, 0.3-ml bolus plus 0.3 ml/kg/hr over 72 hr) was administered I.V. beginning 30 min or 3 hr after trauma or sham operation.\nHistopathological Analysis of Brain Trauma. Animals were allowed to survive for 7 days following fluid-percussion brain injury. […]"}, "[3]": {"tested_on": "phenytoin-resistant status epilepticus", "settings": "in vivo; cited from earlier work"}, "[4]": {"tested_on": "conscious male Sprague-Dawley rats", "experiment": "Cardiovascular effects in conscious rats", "assay_type": "in vivo, rat", "settings": "single oral doses of 0.1, 0.3, 3 or 10 mg/kg; 2 hr", "description": "Talampanel was examined for potential cardiovascular effects in conscious male Sprague-Dawley rats for 2 hr, following single oral doses of 0.1, 0.3, 3 or 10 mg/kg. The cardiovascular variables measured included systolic, diastolic and mean arterial pressure, arterial pulse pressure, and heart rate. […] Thus, taken together, these in vitro and in vivo studies makes AMPA antagonists and specifically talampanel attractive candidates for a number of therapeutic indications (data not shown)."}, "rats": {"tested_on": "rats", "experiment": "Preliminary experiment with continuous infusion in rats (clinical signs)", "assay_type": "in vivo, rat", "settings": "doses of 8 and 10 mg/kg (5, 8 or 10 mg/kg tested)", "description": "The dosage was chosen because talampanel has been studied in vivo in a gerbil model of global ischemia (Lodge et al., Neuropharmacology, 35: 1681-1688 (1996)). […] Therefore, the dose was reduced to about 5 mg/kg."}, "[5]": {"tested_on": "global ischemia in gerbils", "settings": "2.5-5 mg/kg, cited from earlier work"}, "flexor reflexes in cats": {"tested_on": "flexor reflexes in cats", "settings": "in vivo; cited from earlier work"}, "[6]": {"tested_on": "fluid-percussion brain injury", "experiment": "Fluid-percussion brain injury in rats: normal pyramidal neuron counts in hippocampus", "assay_type": "in vivo, rat", "text": "as §1, §2, §3, §4, §5\nHistopathology of Hippocampus. […]"}, "[7]": {"tested_on": "severe epilepsy not responsive to other drugs", "settings": "patients with severe epilepsy not responsive to other drugs; cited from earlier work"}, "kindled seizures": {"tested_on": "kindled seizures", "settings": "cited from earlier work"}, "[8]": {"settings": "treatment begun at 3 hr after trauma"}}, "note": "Read-outs that look alike come from different tables or passages of the source.", "data": [{"smiles": "CC1=NN=C(c2ccc(N)cc2)c2cc3c(cc2C1)OCO3", "note": "[GYKI 52466, 1-(4-aminophenyl)-4-methyl-7,8-methylene-dioxy-5H-2,3-benzodiazepine]", "values": [{"measurement": "neuronal damage in the CA1 sector of the hippocampus", "setting": "[1]; drug pretreatment but not posttreatment", "result": "significantly attenuated"}, {"measurement": "striatal neuronal damage", "setting": "[1]; pretreatment or posttreatment", "result": "not affected by either drug treatment"}, {"measurement": "functional deficits (learned maze responses)", "setting": "[1]; pretreatment vs posttreatment", "result": "pretreatment but not posttreatment reduced functional deficits"}]}, {"smiles": "CC(=O)N1N=C(c2ccc(N)cc2)c2cc3c(cc2C[C@H]1C)OCO3", "note": "[talampanel, (R)-7-acetyl-5-(4-aminophenyl)-8,9-dihydro-8-methyl-7H-1,3-dioxolo [4,5-h][2,3]benzodiazepine]", "values": [{"measurement": "mortality", "setting": "Sprague-Dawley rats", "result": "None of the animals died"}, {"measurement": "rectal and cranial temperatures, arterial blood gases, plasma glucose, arterial blood pressure, body weight", "setting": "Sprague-Dawley rats", "result": "no significant differences between groups"}, {"measurement": "reduction of mean contusion area vs vehicle-treated rats", "setting": "[2]; bregma level −5.8 mm, treatment 30 min after trauma, 7 days after trauma", "result": 85, "unit": "%"}, {"measurement": "reduction of mean contusion area vs vehicle-treated rats", "setting": "[2]; bregma level −6.8 mm, treatment 30 min after trauma, 7 days after trauma", "result": 97, "unit": "%"}, {"measurement": "reduction of total contusion area vs vehicle-treated rats", "setting": "[2]; treatment 30 min after trauma, 7 days after trauma", "result": 70, "unit": "%"}, {"measurement": "overall contusion volume", "setting": "[2]; treatment 30 min after trauma, moderate fluid-percussion brain injury", "result": "significant reduction"}, {"measurement": "contusion foci in brain sections (photomicrographs)", "setting": "[2]; treatment 30 min after trauma, vs vehicle-treated rats", "result": "smaller contusion foci, typically confined to the deeper cortical layers"}, {"measurement": "neuroprotective effect", "setting": "[2]; treatment begun at 3 hr", "result": "lost"}, {"measurement": "contusion area at bregma levels vs vehicle-treated rats", "setting": "[2]; [8]", "result": "reduced only at one bregma level (−6.8 mm)"}, {"measurement": "total contusion area, statistical comparison with vehicle-treated rats", "setting": "[2]; [8]", "result": "did not differ statistically"}, {"measurement": "seizures in status epilepticus", "setting": "[3]", "result": "arrested seizures in a dose-related manner"}, {"measurement": "systolic, diastolic and mean arterial pressure, arterial pulse pressure, heart rate", "setting": "[4]", "result": "No changes were observed"}, {"measurement": "clinical signs", "setting": "rats", "result": "clinical signs of ataxia"}, {"measurement": "survival of hippocampal CA1 neurons / neuroprotection after global ischemia", "setting": "[5]", "result": "significantly neuroprotective"}, {"measurement": "survival of hippocampal CA1 neurons / neuroprotection after global ischemia", "setting": "[5]; listed as Talampanel", "result": "led to survival of hippocampal CA1 neurons"}, {"measurement": "flexor reflexes", "setting": "flexor reflexes in cats", "result": "inhibited flexor reflexes"}, {"measurement": "numbers of normal neurons in CA1 and CA3 sectors of sham animals", "setting": "[6]; sham animals, vehicle or talampanel (30 min or 3 hr)", "result": "identical in all groups"}, {"measurement": "survival of pyramidal neurons in the CA1 sector of hippocampus", "setting": "[6]; treatment 30 min after trauma", "result": "increased survival"}, {"measurement": "numbers of normal neurons in CA3 sector, statistical comparison with vehicle", "setting": "[6]; treatment at 30 min", "result": "did not differ statistically between groups"}, {"measurement": "normal pyramidal-neuron counts CA1 vs vehicle", "setting": "[6]; treatment begun at 3 hr", "result": "almost identical in both groups"}, {"measurement": "normal pyramidal-neuron counts in the hippocampal CA3 sector vs vehicle", "setting": "[6]; treatment begun at 3 hr", "result": "did not differ between groups"}, {"measurement": "ischemic damage in all three subsectors of the hippocampal CA1 sector vs vehicle", "setting": "[6]; treatment starting at 30 min", "result": "significantly attenuated ischemic damage"}, {"measurement": "clinical outcome in patients", "setting": "[7]", "result": "positive results"}, {"measurement": "chemically kindled seizures", "setting": "kindled seizures; 12.5 mg/kg", "result": "suppressed chemically kindled seizures"}, {"measurement": "electrically kindled seizures", "setting": "kindled seizures; 20 mg/kg", "result": "suppressed"}]}]}
